Consider 20 molecules from patent US12325695B2, “5-(4-pyridyloxy)pyrazole compounds serving as TGF-βR1 kinase inhibitor” (JIANGSU AOSAIKANG PHARMACEUTICAL CO., LTD., priority 2019, dated 2025).

The structures appear in SMILES notation.

The subject of one data set is pSmad. The data set is described as follows: Inhibitory activity assay on Smad phosphorylation (HEK-Blue-TGFβ cells, Quanti-Blue readout). The format is cell-based. The settings on record: TGFβ stimulation, 24 hours, read-out: pSmad inhibition IC50. How it is done:
Experimental Embodiment 1: Inhibitory Activity Assay on Smad Phosphorylation
Both HEK-Blue-TGFβ cells and Quanti-Blue reagent were purchased from Invivogen Company. TGFβ was purchased from PeproTech.
The compounds to be tested were diluted 5 times with a row gun to the 8th concentration, that is, diluted from 1 mmol/L to 12.8 nmol/L, the final concentration of dimethyl sulfoxide was 100%, and a double hole experiment was set up. 2 μL of inhibitors of each concentration gradient, 18 μL of TGFβ (20 ng/mL), and 180 μL of cell suspension (140,000 cells/mL) were added to the microplate. At this time, the final concentration gradient of the compound was […] diluted to 0.13 nmol/L. The cell plate was placed at 37° C. in a 5% CO2 incubator for 24 hours. After the reaction was completed, 40 μL of cell culture supernatant was taken out from each well to a new transparent microtiter plate, 160 μL of Quanti-Blue reagent was added to each well, and then the reaction was carried out at 37° C. for 60 minutes. After the reaction was completed, the PerkinElmer Envision multi-label analyzer was used to read the absorption light at 630 nm.
The original data was converted into the inhibition rate, and the IC50 value can be obtained by curve fitting with four parameters.

Data set [1] in a line: Pharmacokinetic studies in vivo (single compound). On the set-up: species or system CD-1 male mice. The settings on record: CD-1 mice; for AUC(0-t) / clearance / half-life / Vd / Cmax / Tmax: male, mouse, plasma; for Vd: read-out: Vdss. The procedure:
Experiment 4: Pharmacokinetic Studies In Vivo
The purpose of this experiment is to evaluate the pharmacokinetic behavior of the compounds after a single intravenous injection and intragastric administration, and to investigate the bioavailability after intragastric administration.
[…] The mice were fasted for at least 12 hours before the administration, and resumed feeding 4 hours after the administration. The mice were free to drink during the entire experiment.
(§1) On the day of the experiment, animals in the intravenous group were given a single injection of the corresponding compound through the tail vein with a volume of 5 mL/kg; the oral group was given the corresponding compound by a single gavage with a volume of 10 mL/kg. The animals were weighed before administration, and the administration volume was calculated according to the body weight. Sample collection time: 0.083 hours, 0.25 hours, 0.5 hours, 1 hour, 2 hours, 4 hours, 8 hours, 24 hours in the injection group, 0.25 hours, 0.5 hours, 1 hour, 2 hours, 4 hours, 6 hours, 8 hours, 24 hours in the gavage group. Approximately 30 μL of whole blood was collected through the saphenous vein at each time point to prepare plasma for high-performance liquid chromatography-tandem mass spectrometry (LC-MS/MS) for concentration determination. All animals were euthanized by CO2 anesthesia after collecting PK samples at the last time point. The non-compartmental model of WinNonlin™ Version 6.3 (Pharsight, Mountain View, CA) pharmacokinetic software was used to process the plasma concentration, and the pharmacokinetic parameters were calculated using the linear and logarithmic trapezoidal method.

Data set [2] deals with mouse colon cancer CT-26 cells. The data set can be described thus: Anti-tumor drug efficacy study, mouse colon cancer CT-26 cell BALB/c mouse subcutaneous allograft tumor model. In kind it is in vivo, BALB/c mice. The settings on record: 50 mg/kg, twice a day, oral. The procedure:
(§2) Experimental Embodiment 3: Anti-Tumor Drug Efficacy Study of Mouse Colon Cancer CT-26 Cell BALB/c Mouse Subcutaneous Allograft Tumor Model In Vivo
The main purpose of this study is to study the anti-tumor drug efficacy of the tested compounds on the CT26 mouse allograft tumor model.
(§3) Cell culture: mouse colon cancer CT-26 cells were cultured in monolayer in vitro, and the culture conditions were RPMI-1640 medium with 10% fetal bovine serum, 37° C. and 5% carbon dioxide incubator. Trypsin-ethylenediaminetetraacetic acid (EDTA) was used for routine digestion and passage twice a week. When the cell saturation was 80%-90% and the number reached the requirement, the cells were collected, counted, and inoculated.
(§4) Animals: BALB/c mice, female, 6-8 weeks old.
(§5) Tumor inoculation: 0.1 mL of DPBS cell suspension containing 3×10^5 CT26 cells was subcutaneously inoculated into the right groin of each mouse, and administration was started on the day of inoculation.
Experimental index: The experimental index was to investigate whether the tumor growth was inhibited, delayed or cured. The tumor diameter was measured with a vernier caliper twice a week. The calculation formula for tumor volume is: V=0.5 L×W^2, where L and W refer to the long diameter and short diameter of the tumor, respectively.

Data set [3] is described as follows: Pharmacokinetics study of cassette drug administration in vivo. Particulars: male, mouse, plasma, CD-1 mice; for Vd: read-out: Vdss; for bioavailability: oral (1.5 mg/kg) vs injection (1 mg/kg), read-out: F (bioavailability). The arrangement: species or system CD-1 male mice. The procedure: Experimental Embodiment 2: Pharmacokinetics Study of Cassette Drug Administration in Vivo
The purpose of this experiment is to evaluate the pharmacokinetic behavior of the compound after a single intravenous injection and intragastric administration, and to investigate the bioavailability after intragastric administration.
CD-1 male mice aged from 7 to 10 weeks were selected, and the doses for intravenous and oral administration were 1 mg/kg and 1.5 mg/kg, respectively. The mice were fasted for at least 12 hours before the administration, and resumed feeding 4 hours after the administration. The mice were free to drink during the entire experiment.
as §1, with “5” for “10”, “group;” for “group,”

The nature of data set [4]: Drug concentration in tumor tissue and plasma AUC in the CT26 tumor model study. In kind it is in vivo, BALB/c mice. Particulars: 50 mg/kg, twice a day, oral; for AUC: female, BALB/c, mouse, plasma. The procedure:
as §2, §3, §4, §5

Usually IC50 stands for the concentration that inhibits the measured activity by half. As for `Cc1cccc(-n2nc3c(c2Oc2ccnc(Nc4cccc(C(N)=O)c4)c2)CCC3)n1` [Compound 13], the 50% inhibitory concentration (IC50) with pSmad came out at 59.6 nM.

For the molecule `Cc1cccc(-n2nc(C)cc2Oc2ccnc(Nc3cnn(CC(C)C)c3)c2)n1` [Compound 7], the IC50 in the data set on pSmad stood at 354 nM.

Regarding `Cc1cccc(-n2nc(C)cc2Oc2ccnc(Nc3cnccn3)c2)n1` [Compound 8], the half-inhibitory concentration (IC50) in the data set with pSmad stood at 684 nM.

In the case of `Cc1cccc(-n2nc(C)cc2Oc2ccnc(Nc3ccnc(C(C)(C)O)c3)c2)n1` [Compound 9], the IC50 with pSmad is 268 nM.

As for `Cc1cccc(-n2nc(C)cc2Oc2ccnc(Nc3cccc(C(N)=O)c3)c2)c1` [Compound 1], the IC50 in the data set on pSmad was 65.5 nM.

One may read the AUC(0-t) as exposure summed from dosing to a finite time, without extrapolation to infinity. Higher therefore signals more exposure. The clearance is the rate of elimination divided by the concentration. Higher therefore signals a high capacity for elimination. Broadly, the half-life is the time in which the quantity being followed falls by half. The low end stands for rapid decline, the high end for slow decline. Broadly, the Cmax is the highest concentration seen after dosing. In general, Tmax refers to the time at which the peak concentration occurs. As usually defined, the bioavailability is dose-corrected exposure relative to a reference, in per cent. By AUC is commonly meant concentration integrated over time. A high value points to high exposure. `Cc1cc(Oc2ccnc(Nc3cccc(C(N)=O)c3)c2)n(C2CCOCC2)n1` [Compound 14]: in data set [1] (iv, injection, 1 mg/kg), the exposure AUC(0-t) worked out at 1.34 µM·h, the clearance is 31.5 mL/min/kg, the half-life was 1.17 h and the Vd is 1.64 L/kg. In addition, in data set [1] (oral, 2.5 mg/kg), the AUC(0-t) amounted to 2.7 µM·h, the highest level (Cmax) was 1560 nM, the time to peak (Tmax) came out at 0.5 h and the half-life was 1.15 h. In data set [1] (oral 2.5 mg/kg vs injection 1 mg/kg), the F was determined as 80.9%. In data set [2], the “% Inhibitory rate on Day 29” value is 81% and the “Mean tumor volume Day 29” value was determined as 424.78 mm^3. The half-maximal inhibitory concentration (IC50) with pSmad was 336 nM. Moreover, in data set [3] (iv, injection (1 mg/kg)), the area under the curve AUC(0-t) turned out to be 1.06 µM·h, the clearance was 37 mL/min/kg, the half-life was 1.37 h and the Vd worked out at 2.39 L/kg. The bioavailability in data set [3] came out at 75.9%. Further, in data set [3] (oral (1.5 mg/kg)), the area under the curve AUC(0-t) amounted to 1.16 µM·h, the Cmax came to 567 nM, the Tmax amounted to 0.25 h and the half-life is 1.61 h. In addition, in data set [4], the “Drug concentration in tumor tissue 1 hour after administration” value is 11318 nmol/kg, the “Drug concentration in tumor tissue 12 hours after administration” value is 820 nmol/kg and the AUC came to 30.1 µM·h.

As to `COc1cccc(-n2nc(C)cc2Oc2ccnc(Nc3cccc(C(N)=O)c3)c2)n1` [Compound 12], the IC50 in the data set on pSmad is 432 nM.

For `CC(C)c1cc(Oc2ccnc(Nc3cccc(C(N)=O)c3)c2)n(C2CCOCC2)n1` [Compound 19], the IC50 in the data set on pSmad was 587 nM.

For the molecule `NC(=O)c1cccc(Nc2cc(Oc3c4c(nn3C3CCOCC3)CCC4)ccn2)c1` [Compound 16], the half-inhibitory concentration (IC50) in the data set on pSmad came to 166 nM.

As for `Cc1cccc(-n2nc3c(c2Oc2ccnc(Nc4cccc(C(N)=O)c4)c2)CCCC3)n1` [Compound 3], the IC50 in the data set with pSmad is 54.3 nM.

`Cc1cccc(-n2nc(C)cc2Oc2ccnc(Nc3cnn(CC(C)(C)O)c3)c2)n1` [Compound 5]: the IC50 in the data set on pSmad amounted to 441 nM.

In the case of `Cc1cccc(-n2nc(C)cc2Oc2ccnc(Nc3cnn(CCO)c3)c2)n1` [Compound 10], in the data set on pSmad, the IC50 worked out at 355 nM.

For the molecule `Cc1nn(C2CCOCC2)c(Oc2ccnc(Nc3cccc(C(N)=O)c3)c2)c1C` [Compound 15], the IC50 with pSmad was determined as 416 nM.

With `Cc1cccc(-n2nccc2Oc2ccnc(Nc3cccc(C(N)=O)c3)c2)n1` [Compound 2], the IC50 in the data set with pSmad is 247 nM.

For `CCc1cc(Oc2ccnc(Nc3cccc(C(N)=O)c3)c2)n(-c2cccc(C)n2)n1` [Compound 4], the IC50 in the data set with pSmad was 53.8 nM.

Take `Cc1cccc(-c2nn3c(c2-c2ccnc4ccc(C(N)=O)cc24)CCC3)n1` [Compound A, Galunisertib, reference compound]: in data set [1] (iv, injection, 1 mg/kg), the area under the curve AUC(0-t) amounted to 0.814 µM·h, the clearance worked out at 56 mL/min/kg, the half-life was 0.45 h and the Vd worked out at 1.31 L/kg. In data set [1] (oral, 5 mg/kg), the AUC(0-t) is 1.37 µM·h, the highest level (Cmax) was 1840 nM, the Tmax was found to be 0.25 h and the half-life was 1.1 h. Moreover, in data set [1] (oral 5 mg/kg vs injection 1 mg/kg), the F was 33.5%. For the same molecule, in data set [2], the “% Inhibitory rate on Day 29” value is given as 66% and the “Mean tumor volume Day 29” value was found to be 758.19 mm^3. For the same molecule, in data set [3] (iv, injection (1 mg/kg)), the area under the curve AUC(0-t) turned out to be 1.15 µM·h, the clearance is 37.3 mL/min/kg, the half-life was 0.477 h and the Vd amounted to 0.679 L/kg. In addition, the bioavailability in data set [3] was determined as 34.9%. Moreover, in data set [3] (oral (1.5 mg/kg)), the exposure AUC(0-t) is 0.586 µM·h, the concentration peaked (Cmax) at 712 nM, the Tmax turned out to be 0.25 h and the half-life was 1.45 h. In addition, in data set [4], the “Drug concentration in tumor tissue 1 hour after administration” value is given as 988 nmol/kg, the “Drug concentration in tumor tissue 12 hours after administration” value is recorded as 180 nmol/kg and the area under the curve (AUC) is 6.17 µM·h.

Regarding `Cc1cccc(-n2nc(C)cc2Oc2ccnc(Nc3cccc(C(N)=O)c3)c2)n1` [Compound 6], in data set [2], the “% Inhibitory rate on Day 29” value is recorded as 73% and the “Mean tumor volume Day 29” value was 601.7 mm^3. For the same molecule, the half-inhibitory concentration (IC50) in the data set on pSmad is 79.2 nM. In addition, in data set [3] (iv, injection (1 mg/kg)), the exposure AUC(0-t) turned out to be 1.81 µM·h, the clearance worked out at 24.9 mL/min/kg, the half-life was 1.32 h and the Vd came out at 1.05 L/kg. Further, in data set [3], the bioavailability came to 54.6%. Also, in data set [3] (oral (1.5 mg/kg)), the exposure AUC(0-t) is 1.45 µM·h, the peak concentration (Cmax) amounted to 804 nM, the Tmax was 0.25 h and the half-life was 2.84 h.

`NC(=O)c1cccc(Nc2cc(Oc3c4c(nn3C3CCOCC3)CCCC4)ccn2)c1` [Compound 17]: the IC50 in the data set on pSmad worked out at 621 nM.

As for `NC(=O)c1cccc(Nc2cc(Oc3cc(C4CC4)nn3C3CCOCC3)ccn2)c1` [Trifluoroacetate of compound 18], the IC50 in the data set on pSmad amounted to 283 nM.

Turning to `Cc1cccc(-n2nc(C)cc2Oc2ccnc(Nc3ccn(CC(C)(C)O)n3)c2)n1` [Compound 11], the concentration for half-maximal inhibition (IC50) in the data set on pSmad was determined as 191 nM.
